Structures are written as SMILES. Values after ≈ are worked out from the molar mass of the structure shown.

Holding throughout (assay type): in vivo
The test system of test [1] is Thrips flavus Schrank nymphs. The test can be described thus: Joint toxicity of I-72 + tolfenpyrad, Example 62, Table 62. As to conditions: A = compound I72, B = tolfenpyrad, eggplant seedling spraying, 48 hours, read-out: LC50. As for the experimental part: (§1) Test target: Thrips flavus Schrank nymphs.
(§2) Preparation of the pesticide solution: according to different test requirements, the test samples were accurately weighed respectively with an electronic analytical balance. The technical pesticides were dissolved in acetone, and then diluted with 0.1% Tween 80 water into a series of pesticide solutions with a certain concentration gradient according to the experimental design dosage.
(§3) Experimental method: first, eggplant seedlings with Thrips flavus Schrank were selected, and the base number was counted. Then, uniform spraying was performed with the pesticide solution in the order from low to high doses according to the experimental design, with 2 mL for each seedling and 3 replicates for each treatment. In addition, a blank control was set up.
(§4) The treated test materials were placed in an observation room, and the temperature, humidity and illumination of the observation room could be adjusted as needed. The number of dead and live insects was investigated 48 hours later. […] Then, the co-toxicity coefficient of each ratio was calculated using the Sun Y-P method to evaluate the mixing effect (the same as in Example 1).

The subject of test [2] is second-instar larvae of Meloidogyne incognita. The test can be described thus: In vitro joint toxicity of I-72 + fluopyram, 24-well plate, Example 32, Table 32. The following applies: A = I-72, B = fluopyram, 24-well plate, 25° C., 48 hours, read-out: LC50. As for the experimental part: Test target: second-instar larvae of Meloidogyne incognita, a sensitive strain reared in a greenhouse.
as §2
Experimental method: the prepared pesticide solutions were added to a 24-well plate in the order from low dosage to high dosage according to the experimental design. In each well of each treatment, 50 nematodes were placed. Each drug had 5 concentrations set, with 3 replicates. After the treatment, the 24-well plate was placed in a constant temperature incubator at 25° C. In addition, a blank control group was set up. The number of dead and live insects was investigated 48 hours later. […] Then, the co-toxicity coefficient of each ratio was calculated using the Sun Y-P method to evaluate the mixing effect (the same as in Example 1).

Another test relates to adult Phyllotreta spp. The test can be described thus: Joint toxicity of I-72 + organophosphorus insecticides, cabbage seedling spraying, Example 19, Table 19. As to conditions: adults, cabbage seedling spraying, 72 h; A = compound I-72, B = acephate; read-out: LC50. As for the experimental part: Test target: adult Phyllotreta spp., a sensitive strain reared indoors.
as §2
Experimental method: first, fresh cabbage seedlings cultivated in the greenhouse were selected and evenly sprayed with the pesticide solution in the order from low dosage to high dosage according to the experimental design. After natural air-drying in the shade, they were covered with a glass cover, and uniform and healthy test insects were introduced, with 10 insects for each treatment and 3 replicates for each treatment. In addition, a blank control was set up.
The treated test materials were placed in an observation room, and the temperature, humidity and illumination of the observation room could be adjusted as needed. The number of dead and live insects was investigated 72 hours later. The corrected mortality rate was calculated using the Abbott's formula, and statistical analysis was performed with the DPS data processing software to obtain the toxicity regression equation, LC50 value and 95% confidence limit of each single test pesticide and each mixture of different ratios. Then, the co-toxicity coefficient of each ratio was calculated using the Sun Y-P method to evaluate the mixing effect (the same as in Example 1).

The test system of test [3] is Thrips flavus Schrank nymphs. In words: Joint toxicity of I-72 + spirotetramat, Example 26, Table 26. The following applies: A = compound I-72, B = spirotetramat, eggplant seedling spraying, 48 hours, read-out: LC50. As for the experimental part: as §1, §2, §3, §4
Test [4] relates to Nilaparvata lugens (Stal) nymphs. In words: Joint toxicity of I-72 + imidacloprid, Example 70, Table 70. The following applies: A = compound I-72, B = imidacloprid, potted-seedling spraying, 72 hours, read-out: LC50. As for the experimental part:
Test target: Nilaparvata lugens (Stal) nymphs, a sensitive strain reared indoors.
as §2
Experimental method: the activity of the mixture against the Nilaparvata lugens (Stal) nymphs was determined by adopting the potted-seedling spraying method. First, rice seedlings were planted in culture pots. Uniform spraying was performed with the pesticide solution in the order from low dosage to high dosage according to the experimental design, with 2 mL for each seedling. Then, Nilaparvata lugens nymphs of uniform size were transferred onto the rice seedlings, with 3 replicates for each treatment. In addition, a blank control was set up.
The treated test materials were placed in an observation room, and the temperature, humidity and illumination of the observation room could be adjusted as needed. The number of dead and live insects was investigated 72 hours later. […] Then, the co-toxicity coefficient of each ratio was calculated using the Sun Y-P method to evaluate the mixing effect (the same as in Example 1).

Test [5] relates to mixed aphids of Myzus persicae (Sulzer). In words: Joint toxicity of I-72 + matrine, Example 34, Table 34. As to conditions: A = compound I-72, B = matrine, spraying on cabbage leaves with aphids, 48 hours, read-out: LC50. The text has this:
Test subject: mixed aphids of Myzus persicae (Sulzer), a sensitive strain reared indoors.
Experimental method: the spraying method on leaves with aphids was adopted. Cabbage leaves with a certain number of Myzus persicae (Sulzer) were taken. The prepared pesticide solutions were evenly sprayed on both the front and back sides of the leaves in the order from low concentration to high concentration according to the experimental design. Then, the leaves were placed in a 6-cm-diameter Petri dish with filter paper. After natural air-drying in the shade, they were placed in the observation room. The experiment had 3 replicates set, and in addition, a blank control was set up. The number of dead and live insects was investigated 48 hours later. The corrected mortality rate was calculated using the Abbott's formula, and the DPS data processing software was used for statistical analysis to calculate the toxicities (LC50 values) of the single test pesticides and the mixtures under the test ratios.
The test conditions, the preparation of the pesticide solution and the evaluation method were the same as those in Example 1.

Test [6] deals with adult Bemisia tabaci (Gennadius). In words: whole plant or invertebrate. The following applies: in Phaseolus vulgaris, 72 h. As for the experimental part:
as §2
In addition, a blank control was set up. The number of dead and live insects was investigated 72 hours later.

With `CN(C(=O)c1ccc2c(c1)OC(F)(F)O2)c1cccc(C(=O)Nc2c(Br)cc(C(F)(C(F)(F)F)C(F)(F)F)cc2OC(F)F)c1F` [Compound I-72], the LC50 in test [1] amounted to 2.02 µg/mL; in test [2], 249 µg/mL; with adult Phyllotreta spp., 3.01 µg/mL; in test [3], 2.04 µg/mL; in test [4], 243 µg/mL; in test [5], 6.36 µg/mL. In addition, in test [6], the LC50 came to 2.91 µg/mL (≈ 3.92 µM).

In general, LC50 refers to the concentration lethal to half of the exposed cells or organisms.

Values taken from patent US20260198495A1, “BINARY INSECTICIDE COMPOSITION AND USE THEREOF” (SHENYANG SINOCHEM AGROCHEMICALS R & D CO., LTD., priority 2022, published 2026).
